Data from the NIST ThermoML archive (doi:10.1021/je060271a).

Conditions: 343.15 K, Liquid, Vibrating tube method

CCCCCC(=O)OCC(COC(=O)CCCCC)(COC(=O)CCCCC)COC(=O)CCCCC [pentaerythritol tetrahexanoate]
Conditions | mass density [kg/m3]
1134.6 kPa | 957.9
1280.5 kPa | 958.2
1295.1 kPa | 958.1
1307.6 kPa | 958.1
1320.1 kPa | 958.1
1332.9 kPa | 958.2
1348.2 kPa | 958.2
1414.9 kPa | 958.2
1428.2 kPa | 958.2
1444 kPa | 958.2
1457.4 kPa | 958.2
1470.4 kPa | 958.2
1483.5 kPa | 958.1
1513.7 kPa | 958.3
1557.9 kPa | 958.3
1571.7 kPa | 958.3
1588.7 kPa | 958.4
1603.1 kPa | 958.4
1617.5 kPa | 958.4
1697.7 kPa | 958.3
1713.1 kPa | 958.5
1728.4 kPa | 958.5
1747.5 kPa | 958.3
1763.5 kPa | 958.4
1779.3 kPa | 958.3
1795.9 kPa | 958.4
1815 kPa | 958.5
1831.3 kPa | 958.5
1848.3 kPa | 958.5
1865 kPa | 958.4
1884.9 kPa | 958.5
1902.5 kPa | 958.6
1920.5 kPa | 958.6
1937.8 kPa | 958.6
1958.6 kPa | 958.5
1976.1 kPa | 958.6
1993.6 kPa | 958.7
2012 kPa | 958.6
2033.4 kPa | 958.6
2051.6 kPa | 958.6
2070.2 kPa | 958.9
2092.2 kPa | 958.6
2363.6 kPa | 958.8
2384.2 kPa | 958.9
2409 kPa | 959
2429.7 kPa | 959
2451.3 kPa | 959
2477.2 kPa | 959.1
2710.1 kPa | 959.1
2733 kPa | 959.1
2756.2 kPa | 959.1
2778.8 kPa | 959.3
2805.7 kPa | 959.1
2828.2 kPa | 959.3
2850.2 kPa | 959.4
2877.4 kPa | 959.2
2900.2 kPa | 959.2
2971.9 kPa | 959.4
2994.1 kPa | 959.4
3021 kPa | 959.5
3043.4 kPa | 959.5
3066.1 kPa | 959.4
3093.1 kPa | 959.5
3115.3 kPa | 959.5
3138.2 kPa | 959.4
3165.6 kPa | 959.5
3188.6 kPa | 959.5
3212 kPa | 959.6
3235.3 kPa | 959.5
3263.5 kPa | 959.6
3286.6 kPa | 959.7
3314.6 kPa | 959.6
3338.4 kPa | 959.7
3362.1 kPa | 959.6
3386.4 kPa | 959.6
3410.3 kPa | 959.6
3439.1 kPa | 959.8
3463 kPa | 959.8
3486.9 kPa | 959.8
3514.8 kPa | 959.7
3538.6 kPa | 959.8
3563 kPa | 959.8
3592.3 kPa | 959.9
3616.2 kPa | 960
3640.6 kPa | 959.9
3665.4 kPa | 959.8
3695 kPa | 959.9
3719.3 kPa | 959.8
3743.2 kPa | 960
3768 kPa | 960
3796.7 kPa | 960
3821.2 kPa | 960
4008.1 kPa | 960.2
4035.6 kPa | 960.1
4062.6 kPa | 960.2
4089.1 kPa | 960.2
4120.6 kPa | 960.3
4147.6 kPa | 960.4
4174.5 kPa | 960.3
4201.5 kPa | 960.3
4234.2 kPa | 960.2
4261.2 kPa | 960.4
4288.4 kPa | 960.4
4316.6 kPa | 960.4
4350.4 kPa | 960.4
4378.3 kPa | 960.5
4414.7 kPa | 960.4
4437.5 kPa | 960.5
4465.6 kPa | 960.6
4499.5 kPa | 960.5
4528.1 kPa | 960.6
4557.2 kPa | 960.6
4592.3 kPa | 960.7
4621.6 kPa | 960.6
4656.7 kPa | 960.6
4686.5 kPa | 960.7
4715.9 kPa | 960.6
4751.9 kPa | 960.8
4781.7 kPa | 960.8
4812.3 kPa | 960.7
4843.3 kPa | 960.8
4880.7 kPa | 960.9
4911.1 kPa | 960.8
4942.3 kPa | 961
4973.8 kPa | 960.9
5010.3 kPa | 960.9
5041.6 kPa | 960.9
5073.3 kPa | 961
5110.1 kPa | 961
5141.5 kPa | 960.9
5173.8 kPa | 961
5212.2 kPa | 961.1
5245.4 kPa | 961.1
5277.4 kPa | 961.2
5309.8 kPa | 961.2
5348.9 kPa | 961.2
5381.6 kPa | 961.3
5415.2 kPa | 961.3
5454.8 kPa | 961.2
5488.1 kPa | 961.3
5521.5 kPa | 961.3
5555.1 kPa | 961.3
5594.9 kPa | 961.4
5627.9 kPa | 961.3
5662.1 kPa | 961.3
